According to patent US6716596B2, “Agents for replacement of NAD+/NADH system in enzymatic reactions” (The Regents of the University of California, priority 2001, dated 2004):
Where a name gives a salt, the structure may show the parent alone.

What was measured:
[1] = stability observations (light, air, solvent); assay type: physicochemical
[2] = molecular target: T1, horse liver alcohol dehydrogenase (HLADH) (Equus caballus, UniProt P00327); assay: biomimetic reduction of norcamphor (racemic); assay type: biochemical; conditions: for exo/endo alcohols formed from norcamphor enantiomer: reaction with the biomimics of the invention
T1 construct: purchased Sigma
Description: Biomimic yield expressed in equivalent was 86% corresponding to NAD^+ yield of 94% under the same conditions.
(§1) [Cp*Rh(bpy)(H2O)]OTf2 (1.9 mg, 2.61×10^−3 mmol), sodium formate (17.8 mg, 261.69×10^−3 mmol), NAD^+ (8.1 mg, 11.23×10^−3 mmol) and HLADH (10 units) were placed in a 10 mL Schlenk flask, and Schlenk techniques were followed to deoxygenate the solid mixture.
(§2) Under positive argon pressure, 5 mL of potassium phosphate buffer (100 mM, pH=7.02, deoxygenated) and carbonyl substrate (83.58×10^−3 mmol, deoxygenated) were added via syringe. The reaction flask was immediately securely capped with a glass-stopper and shaken with a shaker in 30° C. water-bath. The reaction was monitored by gas chromatography (GC), equipped with a β-cyclodextrin column (Supelco, β-DEX-225), and the products were identified by comparing the retention time with the corresponding authentic chiral samples and were confirmed by GC-MS. The enantiomeric excess of the products was determined directly by their relative area in the chromatogram. The progress of the reaction was obtained by mixing the reaction aliquot with an internal standard (cyclohexanol in phosphate buffer), and then calibrating the measured relative area in the chromatogram with their corresponding response factors. The reaction was monitored for 24 hours.
The procedure described in section A is equally applicable to reduction of racemic compounds such as norcamphor, seen in FIG. 8. The method requires the following modification. Due to the sublimation of norcamphor in vacuo, the addition of norcamphor was conducted under positive argon pressure, followed by the addition of phosphate buffer via syringe.

[3] = regioselective reduction of biomimics with catalyst precursor (2) and sodium formate, followed by 1H NMR; conditions: for catalytic hydride transfer: reduction with (2) and HCO2Na, 1H NMR; for turnover frequency (TOF) in the regioselective reduction: reduction to 1,4-dihydro derivative, NAD+ under the same conditions
Description: The relative rates, seen tabulated in FIG. 1C, were determined by observing disappearance of the pyridinium signals versus an internal standard, [(CH3)4N]OTf (tetramethylammonium triflate), during the first 2 hours, where the relative rate of 1-benzylnicotinamide triflate (1) was set to 1.0. The turnover frequencies were calculated by the formation of mmol of product/mmol of catalyst/hour. The total turnover number in 24 hours was ˜95 for all substrates that gave product. The reactions were conducted in presilylated J. Young NMR tubes and were followed by ^1H NMR.
The electronic effect of differently substituted nicotinamide substrates was determined by their relative rates. The relative rates of these compounds were determined by observing the disappearance of the pyridinium signals compared to interval standard, [(CH3)4N]OTf, during the first 2 hours, where the relative rate of compound (1a) was 1.0.
In a typical reaction, a J. Young NMR tube was charged, biomimic substrates (1a)-(1i) (1.0 mol), 2 (1% mol), and HCO2Na (1.1 mol) used as the hydride source and a Schlenk techniques were conducted to deoxygenate the solid mixture. A diluted solvent was added to these solids for compounds (1a)-(1i), the solvent was D2O-THF-d8 (1=1 0.75 mL, deoxygenated), and the NMR tube was placed in a liquid nitrogen bath. The contents were further degassed by two successive freeze-pump-thaw cycles. After thawing out the reaction mixture, the J. Young NMR tube was immediately put in a salted ice-bath and covered with aluminum foil. The reaction was then followed by ^1H NMR spectroscopy at 26° C. temperature, after a speedy thawing out.
The given relative rates and turnover frequencies were determined by decreasing integration of the corresponding pyridinium salts measured against an internal standard, (CH3)4N(OTf), during the first 2 h of the reaction. The ratios of the 1,4- and 1,6-dihydronicotinamide derivatives of compounds (1a), (1b) and (1d)-(1g) were obtained by comparison of the resonance signals with those of authentic samples, where the diagnostic signal is the resonance for —CH2Ph moiety which can be identified unambiguously in the ^1H NMR spectrum.

[4] = competitive regioselective substrate reduction experiments with rhodium catalyst precursor (2); conditions: for times faster than compound (1): competitive reduction with compound (1); for competitive rate: reduced in the presence of compound (1a)
Description: In order to establish whether the σ-donating ability or the electron-withdrawing effect of the 3-substituent of the 1-benzylnicotinamide was the important parameter, several competitive substrate reduction experiments were performed.
For this purpose, the compound (1a) 1-benzylnicotinamide, was reduced with rhodium catalyst precursor (2) in the presence of its alternatively substituted derivatives, compounds (1e), substituted with —C(O)—CH3, (1g), substituted with (—CN), (1d), substituted with —C(S)NH2 or (1f), substituted with —C(O)OCH3, and their competitive reduction was determined.

[5] = molecular target: T1, horse liver alcohol dehydrogenase (HLADH); assay: HLADH enzymatic chiral reduction of ketones with biomimic co-factor regeneration; assay type: biochemical; conditions: for turnover frequency of chiral ketone reduction: ketone (12) reduced by HLADH with co-factor regeneration, 24 hours
Description: FIG. 7 presents structures of ketone substrates 12-15 used for biomimic chiral synthesis of corresponding alcohols. Conversion of the substrates 12-15 to their corresponding alcohols are expressed in % yield, and TOF in d^−1 and S-enantiomer excess (ee) are also shown for each conversion. Corresponding values obtained with NAD^+ are given in parenthesis. The S-enantiomeric excess (ee) was determined by GLC with a modified β-cyclodextrin capillary column.
as §1, §2
The same procedure as described in section A was followed, except that NAD^+ was substituted with any one of the biomimic compounds of the invention.

[6] = UV-vis kinetics of the regioselective reduction with rhodium catalyst precursor (2) and formate; conditions: for TOF / ri initial rate: 294° K, H2O at pH 6.54, substrate 1.55 × 10^−3 M; for ri initial rate: average of two runs; for initial rate, times higher than compound (1) in THF/H2O (1:1): acqueous medium, comparable concentrations
Description: The kinetics of the regioselective reduction reactions were further studied utilizing UV-vis techniques with the two biomimic compounds (1) and (6) and the results were compared to NAD^+ itself. Experimental conditions are described in Example 9.
The effect of the initial rate (ri) at low conversions to the 1,4-dihydro product (˜10%) was ascertained by varying the amount of substrate precatalyst (2) and sodium formate concentrations.
The initial rates (ri) of formation of compound (3) were obtained from plots of concentration (absorbance at 354 nm/ε) versus time at low conversions (˜10%). The values of kcat were calculated at 299° K.
Rates were obtained via UV-vis techniques and are an average of two runs.
This example describes studies producing kinetic and thermodynamic data for 1-benzylnicotinamide triflate (1a) performed in THF/H2O, 1:1, β-nicotinamide -5′-ribose methyl phosphate (6) H2O, pH=6.5, and NAD^+ performed in the regioselective reduction with [Cp*Rh(bpy)H2O)][OTf]2, 2 and in the presence of formate ion.
The kinetic experiments were carried out on a Hewlett Packard 8452A Diode Array Uv-Vis spectrophotometer, attached to a circulating water bath (VWR 1160). For experiments conducted at different temperatures, the circulating water bath, as well as the UV-vis instrument, were warmed up for at least an 1 hour before the kinic studies were initiated.
The 1-benzylnicotinamide triflate (1a) [CP*Rh(bpy)(H2O)][OTf]2 (2) and 1-benzyl-1,4 dihydronicotinamide (3) were synthesized by methods as described in Examples 2, 4 and 7. The NAD^+ and 1,4-NADH compounds were purchased from Sigma and used as received. The THF was distilled from Na and deoxygenate with N2 gas for 1 hour. Distilled water was purchased from Aldrich Chemical Co and deoxygenate prior to being used. A solution of THF/H2O (similar for 1:1 or 1:4 ratios) was used for all the kinetic experiments performed for compounds of 1-benzylnicotinamide type, unless otherwise specified. A stock solution of biomimic (1a) (0.018 M), 2 (6.23×10^−3 M), and sodium formate (0.25 M) were made for the kinetic experiments in THF/H2O (1:1).
A solution of 1-benzylnicotinamide triflate (1a), (4.29×10^−3 M) and sodium formate (0.0539) was made in a volumetric flask (10 mL) under N2 in a THF/H2O (1:1) mixture. The different concentration of biomimic (1a) and sodium formate used for the kinetic experiments are reported above.
A 3.0 mL aliquot of this solution was transferred to a thermostated UV-vis cell by using an air-free syringe, which was also purged with N2 gas. The sample was then brought to the desired temperature for 30-60 min in the UV-vis spectrophotometer thermostated cell holder. Then, 23 μL of a 6.23×10^−3 M stock solution of [CP*Rh(bpy)(H2O)^2+ (2), was added-by syringe under a positive N2 pressure, quickly mixed with the solution, and the absorbance increase at 354 nm was immediately recorded. The experiment was carried out for 2 hours and the formation of the product, 1-benzyl-1,4-dihydronicotinamide, (3) was followed, with the change in absorbance being recorded every 90 seconds. Some kinetic experiments were carried out until all the starting material was converted to product. The induced volume change was taken into account for the calculation of the turnover frequency (TOF).
The kinetic experiments for the β-nicotinamide-5′-ribose methyl phosphate (6) and natural NAD^+ were performed using the same general procedure described above. These kinetic experiments were carried out in H2O and the concentration of β-nicotinamide-5′-ribose methyl phosphate (6) or NAD^+, sodium formate, and [Cp*Rh(bpy)(H2O)]^2+ (2), were in the order of 1.50×10^−3, 0.0186 M, and 1.42×10^−5 M, respectively. The λmax for the β-nicotinamide-5′-ribose methyl phosphate, (6), and natural NAD^+ was 336 nm. In all the initial rate plots, time =0 s was removed from the plots of Concentration versus Time. The standard deviation of the ri were calculated from 2σ values.

T1 sequence (P00327 2-375 limits assumed): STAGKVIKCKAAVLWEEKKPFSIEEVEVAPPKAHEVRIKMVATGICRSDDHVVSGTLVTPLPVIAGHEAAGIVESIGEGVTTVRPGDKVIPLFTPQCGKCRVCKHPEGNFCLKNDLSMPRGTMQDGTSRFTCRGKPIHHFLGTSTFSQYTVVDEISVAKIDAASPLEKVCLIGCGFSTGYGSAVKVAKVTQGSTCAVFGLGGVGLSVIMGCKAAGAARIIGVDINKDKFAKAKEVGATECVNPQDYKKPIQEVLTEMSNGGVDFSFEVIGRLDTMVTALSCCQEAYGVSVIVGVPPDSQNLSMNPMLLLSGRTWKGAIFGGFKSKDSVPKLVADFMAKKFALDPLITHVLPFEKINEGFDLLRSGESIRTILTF

COP(=O)(O)OC[C@H]1O[C@@H](N2C=CCC(C(N)=O)=C2)[C@H](O)[C@@H]1O
stability [1]: both light- and air-sensitive

O=C1CC2CC[C@H]1C2 (racemic) [Compound 16, norcamphor]
exo/endo alcohols formed from norcamphor enantiomer [2]: exclusively the endo alcohol

O=C1CC2CC[C@H]1C2 (racemic) [Compound 17, norcamphor]
exo/endo alcohols formed from norcamphor enantiomer [2]: approximately equal mixture of exo and endo alcohols

C[n+]1cccc(C(N)=O)c1 [1-methylnicotinamide, 1-Methylnicotinamide Triflate Salt]
relative rate ratio of 1-benzyl/1-methylnicotinamide [3]: 2.0 | relative rate of regioselective reduction ([3]; disappearance of pyridinium signals vs [(CH3)4N]OTf during first 2 hours, compound (1a) set to 1.0): 0.5

CCN(CC)C(=O)c1ccc[n+](Cc2ccccc2)c1 [Compound 1c, 1-Benzyl-N,N-diethylnicotinamide, Triflate Salt]
catalytic hydride transfer [3]: not observed

NC(=S)c1ccc[n+](Cc2ccccc2)c1 [Compound 1d, 1-Benzylthionicotinamide, Triflate Salt]
times faster than compound (1) [4]: 1.3 times

CC(=O)c1ccc[n+](Cc2ccccc2)c1.O=S(=O)([O-])C(F)(F)F [Compound 1e, 1-Benzyl-3-acetylpyridinium Triflate]
competitive rate [4]: 0.9

COC(=O)c1ccc[n+](Cc2ccccc2)c1.O=S(=O)([O-])C(F)(F)F [Compound 1f, 1-Benzyl-3-carbomethoxypyridinium Triflate]
times faster than compound (1) [4]: 1.2 times

N#Cc1ccc[n+](Cc2ccccc2)c1.O=S(=O)([O-])C(F)(F)F [Compound 1g, 1-Benzyl-3-cyanopyridinium triflate]
competitive rate [4]: 0.8

Cc1ccc[n+](Cc2ccccc2)c1.O=S(=O)([O-])C(F)(F)F [Compound 1h, 1-Benzyl-3-methylpyridinium triflate]
catalytic hydride transfer [3]: not observed

O=S(=O)([O-])C(F)(F)F.c1ccc(C[n+]2ccccc2)cc1 [Compound 1i, 1-Benzyl-pyridinium triflate]
catalytic hydride transfer [3]: not observed

NC(=O)C1=CN(Cc2ccccc2)C=CC1 [Compound 3, 1-benzyl-1,4-dihydronicotinamide]
recognition by HLADH as hydride catalyst of the chiral conversion [5]: recognizes

COP(=O)([O-])OC[C@H]1O[C@@H]([n+]2cccc(C(N)=O)c2)[C@H](O)[C@@H]1O [Compound 6, β-nicotinamide ribose-5′-methyl phosphate]
TOF [6]: 7 h⁻¹ | ri initial rate [6]: 2.82e-08 M/s | initial rate, times higher than compound (1) in THF/H2O (1:1) [6]: ~3 times | stability [1]: light-sensitive and somewhat air-sensitive | recognition by HLADH as hydride catalyst of the chiral conversion [5]: recognizes | turnover frequency of chiral ketone reduction [5]: ~30 day⁻¹ | TOF, times higher than those of compounds (1a)-(1i) [3]: approximately 2.5 times | TOF, times higher than 1-benzylnicotinamide ([3]; in water vs 1-benzylnicotinamide in THF/water): about 2.5 times | turnover frequency (TOF) in the regioselective reduction [3]: 20 h⁻¹

CC(=O)Cc1ccccc1 [Compound 13, benzylmethylketone]
enantiomeric excess of chiral alcohol from the ketone substrate, S-enantiomer [5]: > 99 % ee

CC(=O)c1ccccc1 [Compound 14, acetophenone]
enantiomeric excess of chiral alcohol from the ketone substrate, S-enantiomer [5]: > 96 % ee | yield of chiral product [5]: 5%

NC(=O)C1=CN([C@@H]2O[C@H](COP(=O)(O)OP(=O)(O)OC[C@H]3O[C@@H](n4cnc5c(N)ncnc54)[C@H](O)[C@@H]3O)[C@@H](O)[C@H]2O)C=CC1 [NAD^+, β-Nicotinamide adenine dinucleotide, reference compound]
TOF [6]: 9 h⁻¹ | ri initial rate [6]: 3.1e-08 M/s | initial rate, times higher than compound (1) in THF/H2O (1:1) [6]: ~3 times | turnover frequency of chiral ketone reduction [5]: ~30 day⁻¹ | turnover frequency (TOF) in the regioselective reduction [3]: 18 h⁻¹ | yield of norcamphor reduction expressed in equivalent ([2]; racemic norcamphor, same conditions for NAD^+): 94%

[Cp*Rh(η^2-(N,N)-2,2′-bipyridyl)(H2O)](OTf)2 [Compound 2]
stability [1]: stable as a solid in the air
